According to ChEMBL document CHEMBL1201862, “PubChem BioAssay data set” (2004):
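How tested: cells in 96-well plates exposed to compound for 48 hours at five concentrations. GI50 marks 50% less growth.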 Calls of active or inactive are those of the source. Cut-off read from the data, not from the text of the source: active = GI50 up to about 1.1 µM and inactive = higher.

What was measured:
Assay in all cases: DTP human tumour cell line panel, 48 h
NCI-H460 = test system: NCI-H460
HOP-62 = test system: HOP-62
LOX IMVI = test system: LOX IMVI
CAKI-1 = test system: CAKI-1
HOP-92 = test system: HOP-92
HL-60 = test system: HL-60
SW-620 = test system: SW-620
SK-OV-3 = test system: SK-OV-3
RPMI-8226 = test system: RPMI-8226
NCI-H23 = test system: NCI-H23
SF-539 = test system: SF-539
NCI-H226 = test system: NCI-H226
NCI-H522 = test system: NCI-H522
HCT-116 = test system: HCT-116
RXF 393 = test system: RXF 393
OVCAR-5 = test system: OVCAR-5
SF-295 = test system: SF-295
SK-MEL-5 = test system: SK-MEL-5

Structure (SMILES) | GI50 (NCI-H460) | GI50 (HOP-62) | GI50 (LOX IMVI) | GI50 (CAKI-1) | GI50 (HOP-92) | GI50 (HL-60) | GI50 (SW-620) | GI50 (SK-OV-3) | GI50 (RPMI-8226) | GI50 (NCI-H23) | GI50 (SF-539) | GI50 (NCI-H226) | GI50 (NCI-H522) | GI50 (HCT-116) | GI50 (RXF 393) | GI50 (OVCAR-5) | GI50 (SF-295) | GI50 (SK-MEL-5)
Oc1cc(-c2ccc3c(c2)OCO3)nc2cc3c(cc12)OCO3 | 40.2 µM (inactive) | 22.9 µM (inactive) | 57.8 µM (inactive) | 64.4 µM (inactive) | > 100 µM (inactive) | 24.5 µM (inactive) | 35.8 µM (inactive) | 30.9 µM (inactive) | 37.5 µM (inactive) | 32.4 µM (inactive) | 23 µM (inactive) | 34.4 µM (inactive) | 40.2 µM (inactive) | – | – | – | – | –
COc1ccc(C(O)/C(=C/n2ccnc2)c2ccccc2)cc1OC (centres undefined) | > 100 µM (inactive) | > 100 µM (inactive) | > 100 µM (inactive) | – | > 100 µM (inactive) | > 100 µM (inactive) | > 100 µM (inactive) | > 100 µM (inactive) | > 100 µM (inactive) | > 100 µM (inactive) | > 100 µM (inactive) | > 100 µM (inactive) | – | > 100 µM (inactive) | > 100 µM (inactive) | > 100 µM (inactive) | > 100 µM (inactive) | > 100 µM (inactive)
Cc1ccc(C(=O)N2CCN(C(=O)c3ccc(C)cc3)c3ccccc32)cc1 | 4.14 µM (inactive) | 6.43 µM (inactive) | 6.44 µM (inactive) | 7 µM (inactive) | 16.4 µM (inactive) | 0.767 µM (active) | 2.93 µM (inactive) | 2.89 µM (inactive) | 3.03 µM (inactive) | 4.52 µM (inactive) | 2.42 µM (inactive) | – | 1.85 µM (inactive) | 3.04 µM (inactive) | 2.24 µM (inactive) | > 63.7 µM (inactive) | 3.09 µM (inactive) | 3.15 µM (inactive)
COc1ccc2c(c1)Oc1cc(O)ccc1[C@@H]2c1ccccc1C(=O)NC(C)c1ccccc1 (some centres undefined) | 12.2 µM (inactive) | 15.3 µM (inactive) | 15.9 µM (inactive) | 20.6 µM (inactive) | – | 11.3 µM (inactive) | 19 µM (inactive) | 23.1 µM (inactive) | 6.49 µM (inactive) | 16.1 µM (inactive) | 16.3 µM (inactive) | 18.3 µM (inactive) | 14.4 µM (inactive) | 12.2 µM (inactive) | 13.1 µM (inactive) | 16.4 µM (inactive) | 13 µM (inactive) | 17.7 µM (inactive)
CCOC(=O)C1=C(C)N(NC(N)=O)C2(N)N(NC(N)=O)C(C)=C(C(=O)OCC)C12C#N (centres undefined) | > 100 µM (inactive) | > 100 µM (inactive) | > 100 µM (inactive) | > 100 µM (inactive) | – | – | > 100 µM (inactive) | > 100 µM (inactive) | > 100 µM (inactive) | – | > 100 µM (inactive) | > 100 µM (inactive) | > 100 µM (inactive) | > 100 µM (inactive) | – | > 100 µM (inactive) | > 100 µM (inactive) | > 100 µM (inactive)
COC(=O)N/N=C(\C(=O)Nc1cccc([N+](=O)[O-])c1)c1nc2ccc([N+](=O)[O-])cc2nc1O | 57.5 µM (inactive) | 26.4 µM (inactive) | 18.6 µM (inactive) | – | 61.2 µM (inactive) | > 100 µM (inactive) | 45.1 µM (inactive) | > 100 µM (inactive) | 32.7 µM (inactive) | > 100 µM (inactive) | 39.5 µM (inactive) | > 100 µM (inactive) | 3.47 µM (inactive) | 61.7 µM (inactive) | > 100 µM (inactive) | > 100 µM (inactive) | > 100 µM (inactive) | 34 µM (inactive)
